We go through 4 compounds from patent US9617278B2, “Antimicrobial compounds” (Dow Global Technologies LLC, priority 2012, dated 2017).

The nature of data set [1]: Stability of the compound on work-up, GC of dried sample. The data set is classed as physicochemical. The settings on record: GC peak becomes smaller after drying of the crude material. The procedure: A three neck 50 mL round bottom flask equipped with a stir bar, thermocouple, addition funnel capped with nitrogen inlet and condenser is charged with 2-amino-2-methylpropan-1-ol (95%, 7.8 g, 0.083 mols, 1.0 equivalents). The flask is cooled down to approximately 10° C. under ice/water bath. Once the temperature is reached, glutaraldehyde (50%, 16.7 g, 0.083 mols, 1.0 equivalents) is added drop wise over a period of 15-20 minutes. The reaction temperature is maintained by cooling the bath and by controlled addition of glutaraldehyde. After complete addition of glutaraldehyde, the transparent reaction mixture turns milky/opaque and a viscous sticky solid starts forming making stirring difficult. The reaction is stopped and the GC of the material is taken and a peak at 11.99 minutes is observed which corresponds to compound (4). The GC has some minor impurities in the high retention region. 20 mL of ethyl acetate is added to the reaction mixture and vigorously stirred under nitrogen. The entire content of the flask dissolve in ethyl acetate. The ethyl acetate layer is washed twice with 25 mL of water and the organic layer dried in magnesium sulfate.
A three neck 100 mL round bottom flask equipped with a stir bar, thermocouple, addition funnel capped with nitrogen inlet and condenser is charged with 3-aminobutan-2-ol (100%, 8.9 g, 0.1mols, 1.0 equivalent). […]

For another data set, the system named is Desulfovibrio longus. The experiment in a line: Biocidal efficacy at room temperature, sulfate reducing bacteria (SRB). The data set is classed as cell-based. As to conditions: for minimum dose needed to achieve 3-log reduction in bacteria levels: SRB, anaerobic PBS, doses 200 to 12 ppm glutaraldehyde equivalent, n/a = threshold not met at any tested dose; for activity against SRB (in words): compared with glutaraldehyde. Here is the method:
(§1) Glutaraldehyde and Compounds 1 and 2 are tested for biocidal activity against a pool of aerobic organisms at room temperature and against sulfate reducing bacteria (SRB) at room temperature. Tests are performed as follows:
(§2) a. Stock preparation. Glutaraldehyde (50% in water) and Compounds 1 and 2 are each dissolved in DMSO to a concentration of 200 mM, which is equivalent to 20,000 ppm of free glutaraldehyde.
b. Aerobic Bacteria—a mixed pool of 6 bacterial species at ˜5×10^6 CFU/mL in phosphate buffered saline is distributed into a 96-well plate. Each well receives an independent chemical treatment of glutaraldehyde or Compound 1 or 2 at concentrations ranging from 200 ppm to 12 ppm glutaraldehyde. A control treatment of DMSO alone is also included. Each condition is tested in triplicate. After set periods of incubation (1, 4, and 24 h), the number of surviving cells in each well are enumerated by dilution to extinction in a medium containing resazurin dye as an indicator. c. Sulfate Reducing Bacteria (SRB)—SRB testing is performed as for the aerobic bacteria with the following modifications: the species Desulfovibrio longus is tested in anaerobic PBS and the enumeration of surviving cells is performed in a medium containing soluble iron as an indicator. d. Results: Values indicate the minimum dose needed (in ppm) to achieve 3-log reduction in bacteria levels. “n/a” indicates the threshold was not met at any of the tested doses. “N.D” indicates data not available.

For data set [2], the system named is mixed pool of 6 bacterial species (aerobic organisms). The experiment in a line: Biocidal efficacy at room temperature, aerobic bacteria. The data set is classed as cell-based. Here is the method:
as §1, §2
b. Aerobic Bacteria—a mixed pool of 6 bacterial species at ˜5×10^6 CFU/mL in phosphate buffered saline is distributed into a 96-well plate. Each well receives an independent chemical treatment of glutaraldehyde or Compound 1 or 2 at concentrations ranging from 200 ppm to 12 ppm glutaraldehyde. A control treatment of DMSO alone is also included. Each condition is tested in triplicate. After set periods of incubation (1, 4, and 24 h), the number of surviving cells in each well are enumerated by dilution to extinction in a medium containing resazurin dye as an indicator. c. Sulfate Reducing Bacteria (SRB)—SRB testing is performed as for the aerobic bacteria with the following modifications: the species Desulfovibrio longus is tested in anaerobic PBS and the enumeration of surviving cells is performed in a medium containing soluble iron as an indicator. d. Results: Values indicate the minimum dose needed (in ppm) to achieve 3-log reduction in bacteria levels. […]

Data set [3] concerns Thermus thermophilus (ATCC 27634). The experiment in a line: Biocidal efficacy at elevated temperature. The data set is classed as cell-based. The settings on record: for log kill of treated bacterial populations relative to an untreated control: 50 ppm glutaraldehyde equivalent. The procedure: Compound 1 (208 mg) is dissolved in DMSO (5 mL) to yield a 200 mM solution such that the glutaraldehyde-equivalent concentration of the stock solution is 20,000 ppm. The bacterial strain Thermus thermophilus (ATCC 27634) is maintained at 70° C. After 24-48 hours of growth, 10 mL of bacterial culture are harvested by spinning in a Beckman-Coulter benchtop centrifuge at 3000 rpm for 15 min. The cell pellet is resuspended in 100 mL of phosphate-buffered saline (PBS) to give approximately 5×10^5 CFU/mL and aliquoted into 10 mL portions in glass test tubes fitted with screw caps. Samples are equilibrated to 37, 55, or 70° C. for 30 min and then treated with glutaraldehyde or Compound 1 at 50 ppm glutaraldehyde equivalent. The treated samples are returned to their respective equilibration temperatures for 4 h and then enumerated for surviving bacteria. After 24 h, the process is repeated by adding fresh grown bacteria to the samples to re-challenge the biocide. The samples are again enumerated after 4 h.
Results are reported in terms of log kill of treated bacterial populations relative to an untreated control at each temperature. For values listed as “>x,” actual kill may have been higher but could not be detected by this assay.

Take `CC1OC2CCC=CN2C1C` (stereo not drawn) [Compound 5, 2,3-dimethyl-3,7,8,8a-tetrahydro-2H-oxazolo[3,2-a]pyridine]: the “stability of the compound (in words)” value in data set [1] is recorded as “limited stability”.
In the case of `CCCCC(CC)C1OC2CCC=CN2C1C` (stereo not drawn) [Compound 2, 2-(heptan-3-yl)-3-methyl-3,7,8,8a-tetrahydro-2H-oxazolo[3,2-a]pyridine], the “minimum dose needed to achieve 3-log reduction in bacteria levels” value is 200 ppm with Desulfovibrio longus (1 hour) and above 200 ppm in the data set with Desulfovibrio longus (4 hours). The “activity against SRB (in words)” value in the data set with Desulfovibrio longus is reported as “some activity against SRB, but are not as effective as glutaraldehyde”. The “biocidal activity against aerobic bacteria (in words)” value in data set [2] was “do not show significant biocidal activity”.
On to `CCCCC1OC2CCC=CN2C1CC` (stereo not drawn) [Compound 1, 2-butyl-3-ethyl-3,7,8,8a-tetrahydro-2H-oxazolo[3,2-a]pyridine], for which the results for the “minimum dose needed to achieve 3-log reduction in bacteria levels” value with Desulfovibrio longus (4 hours) and in the data set on Desulfovibrio longus (24 hours) were 200 ppm and 26 ppm, respectively. Further, the “activity against SRB (in words)” value with Desulfovibrio longus was “some activity against SRB, but are not as effective as glutaraldehyde”. Also, the “biocidal activity against aerobic bacteria (in words)” value in data set [2] is given as “do not show significant biocidal activity”. Further, the “log kill of treated bacterial populations relative to an untreated control” value in data set [3] (37° C., 4 hr) was above 3 log; in data set [3] (37° C., 24 hr re-challenge with fresh bacteria, enumerated after 4 h) it was 2 log; in data set [3] (55° C., 4 hr), above 3 log; in data set [3] (55° C., 24 hr re-challenge with fresh bacteria, enumerated after 4 h), 1 log; in data set [3] (70° C., 4 hr) it was above 4 log; in data set [3] (70° C., 24 hr re-challenge with fresh bacteria, enumerated after 4 h), above 4 log. In addition, the “activity compared with glutaraldehyde (in words)” value in data set [3] (70° C.) was “equivalent activity to glutaraldehyde”; in data set [3] (lower temperatures (37, 55° C.)), “less effective”.
Take `CC1(C)COC2CCC=CN21` (stereo not drawn) [Compound 4, 3,3-dimethyl-3,7,8,8a-tetrahydro-2H-oxazolo[3,2-a]pyridine]: in data set [1], the “stability of the compound (in words)” value is given as “limited stability”.
